The text below walks through data of US5229381A, “Substituted azetidinones as anti-inflammatory and antidegenerative agents” (Merck & Co., Inc., priority 1991, dated 1993).

The first assay concerns the target T1, human polymorphonuclear leukocyte elastase (Homo sapiens, UniProt P08246).
T1 construct: Crude extract of human polymorphonuclear leukocytes (PMN) containing elastase activity; endogenous in cells; host or cells: human polymorphonuclear leukocytes (crude extract)
T1 sequence (P08246 30-247 limits assumed): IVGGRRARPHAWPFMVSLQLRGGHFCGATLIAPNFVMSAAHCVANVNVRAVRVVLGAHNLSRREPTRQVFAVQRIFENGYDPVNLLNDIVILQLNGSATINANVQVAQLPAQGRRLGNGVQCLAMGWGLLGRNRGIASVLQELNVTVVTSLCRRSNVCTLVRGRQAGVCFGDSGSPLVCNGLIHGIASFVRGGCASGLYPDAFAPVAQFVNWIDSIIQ
Kind of assay: Inhibition of human polymorphonuclear leukocyte (granulocyte) elastase via hydrolysis of Boc-AAPAN or Boc-AAPVN. Format: biochemical. As to conditions: Table I; read-out: Ki, concentration of the inhibitor giving 50% of the control enzyme activity.
Method: Enzyme Assays for the Inhibition of Human Polymorphonuclear Leukocyte Elastase Via Hydrolysis of N-t-Boc-alanyl-alanyl-prolylalanine-p-nitroanilide (Boc-AAPAN) or N-t-Boc-alanyl-prolylvaline-p-nitroanilide (Boc-AAPVN) Reagent:
0.05M TES (N-tris[hydroxymethyl]methyl-2-amino-ethanesulfonic acid) Buffer, pH 7.5.
0.2 mM Boc-AAPAN or Boc-AAPVN.
To prepare substrate, the solid was first dissolved in 10.0 ml DMSO. Buffer at pH 7.5 was then added to a final volume of 100 ml.
Crude extract of human polymorphonuclear leukocytes (PMN) containing elastase activity.
Inhibitors (azetidinones) to be tested dissolved in DMSO just before use.
To 1.0 ml of 0.2 mM Boc-AAPAN in a cuvette, 0.01-0.1 ml of DMSO with or without inhibitor was added. After mixing, a measurement was taken at 410 mμ to detect any spontaneous hydrolysis due to presence of test compound. 0.05 Milliliters of PMN extract was then added and the ΔOD/min at 410 mμ was measured and recorded. Beckman model 35 spectrophotometer was used.
Results were also expressed as Ki, the micromolar concentration of the inhibitor (μM) giving 50% of the control enzyme activity; or as ^k obs/I which is the second order rate constant in per mole per second for inactivation of the enzyme.
The elastase activity in the crude PMN extract may vary from one preparation to another. A control of each new batch is run, and the volume added in the assay procedure is adjusted according to activity.
Take `CCC1C(=O)N(C(C)=O)C1OC(=O)CCC(=O)O` (centres unmarked): the Ki is 2 µM.

Consider `CCC1C(=O)N(C(=O)CCC(=O)O)C1OC(C)=O` (centres unmarked), for which the Ki turned out to be 1.43 µM.

The assay is the same for the next values; noted with them: pH 7.5, Table II, (per mole per second); read-out: kobs/I, second order rate constant of inactivation of the enzyme.
As to `CCC1(CC)C(=O)N(C(=O)NCc2ccccc2)C1n1ccnc1` (centres unmarked), the kinact/KI came to 200 M⁻¹ s⁻¹.

For `CCC1(CC)C(=O)N(C(=O)NCc2ccccc2)C1Oc1ccccc1CO` (centres unmarked), the kinact/KI was determined as 2960 M⁻¹ s⁻¹.

For `CCC1(CC)C(=O)N(C(=O)NCc2ccccc2)C1Oc1ccc2cc(C(=O)O)ccc2c1` (centres unmarked), the kinact/KI was found to be 5560 M⁻¹ s⁻¹.

Consider `CCC1(CC)C(=O)N(C(=O)NCc2ccccc2)C1Oc1cccc(C(=O)NCc2ccccc2)c1` (centres unmarked), for which the kinact/KI worked out at 3050 M⁻¹ s⁻¹.

`CCC1(CC)C(=O)N(C(=O)NCc2ccccc2)C1Oc1cccc(C(=O)O)c1` (centres unmarked): the kinact/KI stood at 1760 M⁻¹ s⁻¹.

Consider `CCC1(CC)C(=O)N(C(=O)NCc2ccccc2)C1Oc1ccc(CC(=O)O)cc1` (centres unmarked), for which the kinact/KI came out at 3180 M⁻¹ s⁻¹.

On to `CCC1(CC)C(=O)N(C(=O)NCc2ccc(C(=O)O)cc2)C1Oc1ccc(C(C)=O)cc1` (centres unmarked), for which the kinact/KI worked out at 2810 M⁻¹ s⁻¹.

With `CCC1(CC)C(=O)N(C(=O)NCc2ccc(C(C)=O)cc2)C1Oc1ccc(C(C)=O)cc1` (centres unmarked), the kinact/KI amounted to 5920 M⁻¹ s⁻¹.

Consider `CCC1(CC)C(=O)N(C(=O)NCc2cc3ccccc3o2)C1Oc1ccc(C(=O)O)cc1` (centres unmarked), for which the kinact/KI turned out to be 13200 M⁻¹ s⁻¹.

In the case of `CCC1(CC)C(=O)N(C(=O)NCc2ccco2)C1Oc1ccc(C(=O)O)cc1` (centres unmarked), the kinact/KI stood at 5220 M⁻¹ s⁻¹.

For `CCC1(CC)C(=O)N(C(=O)NCc2cccs2)C1Oc1ccc(C(=O)O)cc1` (centres unmarked), the kinact/KI is 4920 M⁻¹ s⁻¹.

With `CCC1(CC)C(=O)N(C(=O)NCc2ccc(Cl)cc2)C1Oc1ccc(C(=O)O)cc1` (centres unmarked), the kinact/KI stood at 3420 M⁻¹ s⁻¹.

For the molecule `CCC1(CC)C(=O)N(C(=O)NCc2ccc(N(C)C)cc2)C1Oc1ccc(C(=O)O)cc1` (centres unmarked), the kinact/KI was determined as 9980 M⁻¹ s⁻¹.

Take `CCC1(CC)C(=O)N(C(=O)NCc2ccc(Oc3ccccc3)cc2)C1Oc1ccc(C(=O)O)cc1` (centres unmarked): the kinact/KI was found to be 12000 M⁻¹ s⁻¹.

Take `CCC1(CC)C(=O)N(C(=O)NCC2CCCCC2)C1Oc1ccc(C(=O)O)cc1` (centres unmarked): the kinact/KI came out at 1420 M⁻¹ s⁻¹.

For `CCC1(CC)C(=O)N(C(=O)NCc2ccc3cc4ccccc4cc3c2)C1Oc1ccc(C(=O)O)cc1` (centres unmarked), the kinact/KI was determined as 36200 M⁻¹ s⁻¹.

In the case of `CCC1(CC)C(=O)N(C(=O)NCc2ccc(C)cc2)C1Oc1ccc(C(=O)O)cc1` (centres unmarked), the kinact/KI came to 3960 M⁻¹ s⁻¹.

For `CCC1(CC)C(=O)N(C(=O)NCc2ccc(F)cc2)C1Oc1ccc(C(=O)O)cc1` (centres unmarked), the kinact/KI was 2340 M⁻¹ s⁻¹.

For `CCC1(CC)C(=O)N(C(=O)NCc2ccc([N+](=O)[O-])cc2)C1Oc1ccc(C(=O)O)cc1` (centres unmarked), the kinact/KI was found to be 5080 M⁻¹ s⁻¹.

As for `CCC1(CC)C(=O)N(C(=O)NCc2ccc(OC)cc2)C1Oc1ccc(C(=O)O)cc1` (centres unmarked), the kinact/KI was determined as 5160 M⁻¹ s⁻¹.

Take `CCC1(CC)C(=O)N(C(=O)NCc2ccc(-c3ccccc3)cc2)C1Oc1ccc(C(=O)O)cc1` (centres unmarked): the kinact/KI stood at 37000 M⁻¹ s⁻¹.

In the case of `CCC1(CC)C(=O)N(C(=O)NCc2ccc(C(=O)NS(=O)(=O)c3ccc(Cl)cc3)cc2)C1Oc1ccc(C(=O)O)cc1` (centres unmarked), the kinact/KI is 1730 M⁻¹ s⁻¹.

In the case of `CCC1(CC)C(=O)N(C(=O)NC(C)c2cccc3ccccc23)C1Oc1ccc(C(=O)O)cc1` (centres unmarked), the kinact/KI is 14100 M⁻¹ s⁻¹.

As to `CCC1(CC)C(=O)N(C(=O)NC(C)c2ccc(C3CCCCC3)c(Cl)c2)C1Oc1ccc(C(=O)O)cc1` (centres unmarked), the kinact/KI was 20800 M⁻¹ s⁻¹.

In the case of `CCC1(CC)C(=O)N(C(=O)NCCCc2ccccc2)C1Oc1ccc(C(=O)O)cc1` (centres unmarked), the kinact/KI came out at 4540 M⁻¹ s⁻¹.

As to `CCC1(CC)C(=O)N(C(=O)NCCCCC(O)c2ccccc2)C1Oc1ccc(C(=O)O)cc1` (centres unmarked), the kinact/KI was 4200 M⁻¹ s⁻¹.

`CCC1(CC)C(=O)N(C(=O)NCCCCOc2ccccc2)C1Oc1ccc(C(=O)O)cc1` (centres unmarked): the kinact/KI was found to be 3450 M⁻¹ s⁻¹.

In the case of `CCC1(CC)C(=O)N(C(=O)NCCCCc2ccccc2)C1Oc1ccc(C(=O)O)cc1` (centres unmarked), the kinact/KI came out at 10900 M⁻¹ s⁻¹.

For the molecule `CCCCCCCCCNC(=O)N1C(=O)C(CC)(CC)C1Oc1ccc(C(=O)O)cc1` (centres unmarked), the kinact/KI was 8300 M⁻¹ s⁻¹.

On to `CCC1(CC)C(=O)N(C(=O)NCc2ccc(-c3ccccc3)cc2)C1Oc1ccc(C(=O)CCC(=O)O)cc1` (centres unmarked), for which the kinact/KI was found to be 107000 M⁻¹ s⁻¹.

Consider `CCC1(CC)C(=O)N(C(=O)NCc2ccccc2)C1Oc1ccc(NC(=O)CCC(=O)O)cc1` (centres unmarked), for which the kinact/KI came to 2570 M⁻¹ s⁻¹.

For the molecule `CCC1(CC)C(=O)N(C(=O)NCc2ccccc2)C1Oc1ccc(NC(C)=O)cc1` (centres unmarked), the kinact/KI came to 3500 M⁻¹ s⁻¹.

`CCC1(CC)C(=O)N(C(=O)NCc2ccccc2)C1Oc1ccc([N+](=O)[O-])cc1` (centres unmarked): the kinact/KI was 6850 M⁻¹ s⁻¹.

Regarding `CCC1(CC)C(=O)N(C(=O)NCc2ccccc2)C1Oc1ccc([N+](C)(C)C)cc1` (centres unmarked), the kinact/KI was found to be 1700 M⁻¹ s⁻¹.

Regarding `CCC1(CC)C(=O)N(C(=O)NCc2ccc(C(=O)O)cc2)C1Oc1ccccc1` (centres unmarked), the kinact/KI was found to be 1500 M⁻¹ s⁻¹.

In the case of `CCCC1(CC)C(=O)N(C(=O)NC(CC)c2ccccc2)C1Oc1ccc(CC(=O)O)cc1` (centres unmarked), the kinact/KI was 54000 M⁻¹ s⁻¹.

For `CCCC1(CC)C(=O)N(C(=O)NCc2ccc3ccccc3c2)C1Oc1ccc(C(=O)O)cc1` (centres unmarked), the kinact/KI came to 51000 M⁻¹ s⁻¹.

As to `CCCC1(CC)C(=O)N(C(=O)NCc2cccc(C(F)(F)F)c2)C1Oc1ccc(C(=O)O)cc1` (centres unmarked), the kinact/KI is 55000 M⁻¹ s⁻¹.

Regarding `CCCC1(CC)C(=O)N(C(=O)NC(CC)c2ccccc2)C1Oc1ccc(C(=O)CCC(=O)O)cc1` (centres unmarked), the kinact/KI amounted to 87000 M⁻¹ s⁻¹.

In the case of `CCC1(COC)C(=O)N(C(=O)NCc2ccc3ccccc3c2)C1Oc1ccc(C(=O)O)cc1` (centres unmarked), the kinact/KI is 50000 M⁻¹ s⁻¹.

With `CCC1(COC)C(=O)N(C(=O)NCc2ccc3c(c2)OCO3)C1Oc1ccc(C(=O)O)cc1` (centres unmarked), the kinact/KI turned out to be 17000 M⁻¹ s⁻¹.

On to `CCC1(COC)C(=O)N(C(=O)NCc2ccccc2)C1Oc1ccc(C(=O)O)cc1` (centres unmarked), for which the kinact/KI came out at 1900 M⁻¹ s⁻¹.

As to `CCC1(COC)C(=O)N(C(=O)NCc2ccc(-c3ccccc3)cc2)C1Oc1ccc(C(=O)O)cc1` (centres unmarked), the kinact/KI was 44500 M⁻¹ s⁻¹.

For the molecule `CCCC(NC(=O)N1C(=O)C(CC)(COC)C1Oc1ccc(C(=O)O)cc1)c1ccccc1` (centres unmarked), the kinact/KI turned out to be 75000 M⁻¹ s⁻¹.

Turning to `CCC1(C)C(=O)N(C(=O)NCc2ccccc2)C1Oc1ccc(C(N)=O)cc1` (centres unmarked), the kinact/KI turned out to be 12500 M⁻¹ s⁻¹.

In the case of `CCC1(C)C(=O)N(C(=O)NCc2cc(C)c(C(=O)O)c(C)c2)C1Oc1ccc(C(N)=O)cc1` (centres unmarked), the kinact/KI turned out to be 30000 M⁻¹ s⁻¹.

In the case of `CCC1(C)C(=O)N(C(=O)NCC(C)c2ccccc2)C1Oc1ccc(C(=O)O)cc1` (centres unmarked), the kinact/KI is 2550 M⁻¹ s⁻¹.

Regarding `CCC1(C)C(=O)N(C(=O)NCc2cc(C)c(C(=O)O)c(C)c2)C1Oc1ccc(C(=O)O)cc1` (centres unmarked), the kinact/KI was 5600 M⁻¹ s⁻¹.

Consider `CCC1(C)C(=O)N(C(=O)NC(C)c2ccccc2)C1Oc1ccc(C(=O)O)cc1` (centres unmarked), for which the kinact/KI came to 15000 M⁻¹ s⁻¹.

In the case of `CCC(NC(=O)N1C(=O)C(C)(CC)C1Oc1ccc(C(=O)O)cc1)c1ccsc1` (centres unmarked), the kinact/KI amounted to 78800 M⁻¹ s⁻¹.

As for `CCC(NC(=O)N1C(=O)C(C)(CC)C1Oc1ccc(C(=O)O)cc1)c1ccc2occc2c1` (centres unmarked), the kinact/KI is 750000 M⁻¹ s⁻¹.

Consider `CCC1C(=O)N(C(=O)Nc2ccc(C(=O)O)cc2)C1Oc1ccc(C(=O)O)cc1` (centres unmarked), for which the kinact/KI stood at 13600 M⁻¹ s⁻¹.

`CCCC1(CC)C(=O)N(C(=O)NCc2ccccc2)C1Oc1ccc(C(=O)O)cc1` (centres unmarked): the kinact/KI was found to be 3280 M⁻¹ s⁻¹.

In the case of `CCCC1(CCC)C(=O)N(C(=O)NCc2ccccc2)C1Oc1ccc(C(=O)O)cc1` (centres unmarked), the kinact/KI amounted to 2500 M⁻¹ s⁻¹.

Turning to `C=CCC1C(=O)N(C(=O)NCc2ccccc2)C1Oc1ccc(C(=O)O)cc1` (centres unmarked), the kinact/KI was 5400 M⁻¹ s⁻¹.

Take `CCC1(Cc2ccccc2)C(=O)N(C(=O)NCc2ccccc2)C1Oc1ccc(C(=O)O)cc1` (centres unmarked): the kinact/KI is 87 M⁻¹ s⁻¹.

`C=CCC1(CC)C(=O)N(C(=O)NCc2ccccc2)C1Oc1ccc(C(=O)O)cc1` (centres unmarked): the kinact/KI came out at 1970 M⁻¹ s⁻¹.

For `O=C(O)c1ccc(OC2N(C(=O)NCc3ccccc3)C(=O)C23CCCC3)cc1` (centres unmarked), the kinact/KI was found to be 1900 M⁻¹ s⁻¹.

The same assay, now with this note: pH 7.5, read-out: kobs/I, second order rate constant of inactivation of the enzyme.
Regarding `CCC1C(=O)N(C(C)=O)C1OC(=O)CCC(=O)O` (centres unmarked), the kinact/KI stood at 4510 M⁻¹ s⁻¹.

Consider `CCC1C(=O)N(C(=O)CCC(=O)O)C1OC(C)=O` (centres unmarked), for which the kinact/KI stood at 2250 M⁻¹ s⁻¹.
